Results on 33 molecules are retold here after patent publication US10954216B2, “BMP-signal-inhibiting compound” (RIKEN, priority 2016, dated 2021).

Like-named read-outs stand apart in the source and are kept apart here.

The test system of the assay is BMP signal in MDA-231-D-BREFluc/Rluc cells. The experiment in a line: BMP signal inhibitory effect (AlphaScreen SureFire SMAD1 p-Ser463/465, BMP-6 stimulation). The assay is classed as cell-based. In a few lines:
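MDA-231-D-BREFluc/Rluc cells were pretreated with compound for 2 h at 37° C, then stimulated with BMP-6 for 30 min. SMAD1 p-Ser463/465 in lysates was measured by AlphaScreen SureFire.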
For orientation: Alpha assays give light when donor and acceptor beads are brought close together.

Where [1] appears, read: BMP-6 stimulated MDA-231-D-BREFluc/Rluc cells, phospho-SMAD1 AlphaScreen, read-out: IC50.

In the case of `CC(C)N1CCN(C(=O)c2ccc(Nc3nccc(-c4cn(Cc5ccc(F)cc5)nc4-c4cccnc4)n3)cc2)CC1` [Example 121, (4-((4-(1-(4-Fluorobenzyl)-3-(pyridin-3-yl)-1H-pyrazol-4-yl)pyrimidin-2-yl)amino)phenyl)(4-isopropylpiperazin-1-yl)methanone], the 50% inhibitory concentration (IC50) (usually the concentration that gives 50% inhibition) under setting [1] stood at 19.6 nM.

In the case of `CCn1cc(-c2ccnc(Nc3ccc(N4CCC[C@@H](N)C4)cc3)n2)c(-c2cccnc2)n1` [Example 161, (R)-N-(4-(3-Aminopiperidin-1-yl)phenyl)-4-(1-ethyl-3-(pyridin-3-yl)-1H-pyrazol-4-yl)pyrimidin-2-amine], under setting [1], the concentration for half-maximal inhibition (IC50) came out at 12.6 nM.

With `CCn1cc(-c2ccnc(Nc3ccc(C(=O)N4CCN(C(C)(C)C)CC4)cc3)n2)c(-c2cccnc2)n1` [Example 1, (4-(tert-butyl)piperazin-1-yl)(4-((4-(1-ethyl-3-(pyridin-3-yl)-1H-pyrazol-4-yl)pyrimidin-2-yl)amino)phenyl)methanone], the IC50 under setting [1] was 6.9 nM.

As for `CCn1cc(-c2nc(Nc3ccc(N4CCNCC4)cc3)ncc2F)c(-c2cccnc2)n1` [Example 166, 4-(1-Ethyl-3-(pyridin-3-yl)-1H-pyrazol-4-yl)-5-fluoro-N-(4-(piperazin-1-yl)phenyl)pyrimidin-2-amine], under setting [1], the IC50 was determined as 40 nM.

As to `CCn1cc(-c2ccnc(Nc3ccc4c(n3)CCN(C)C4)n2)c(-c2cccnc2)n1` [Example 7, N-(4-(1-ethyl-3-(pyridin-3-yl)-1H-pyrazol-4-yl)pyrimidin-2-yl)-6-methyl-5,6,7,8-tetrahydro-1,6-naphthyridin-2-amine], the concentration for half-maximal inhibition (IC50) under setting [1] stood at 144 nM.

As to `CCn1cc(-c2ccnc(Nc3ccc(C(=O)N4CCN(C)CC4)cc3)n2)c(-c2cccnc2)n1` [Example 116, (4-((4-(1-Ethyl-3-(pyridin-3-yl)-1H-pyrazol-4-yl)pyrimidin-2-yl)amino)phenyl)(4-methylpiperazin-1-yl)methanone], the IC50 under setting [1] amounted to 15.1 nM.

For the molecule `CCn1cc(-c2ccnc(Nc3cnn(C4CN(CC(C)(C)O)C4)c3)n2)c(-c2cccnc2)n1` [Example 48, 1-(3-(4-((4-(1-Ethyl-3-(pyridin-3-yl)-1H-pyrazol-4-yl)pyrimidin-2-yl)amino)-1H-pyrazol-1-yl)azetidin-1-yl)-2-methylpropan-2-ol], the IC50 under setting [1] was determined as 21.2 nM.

For the molecule `CCn1cc(-c2ccnc(Nc3ccc4c(c3)CCN(C3COC3)CC4)n2)c(-c2cccnc2)n1` [Example 125, N-(4-(1-Ethyl-3-(pyridin-3-yl)-1H-pyrazol-4-yl)pyrimidin-2-yl)-3-(oxetan-3-yl)-2,3,4,5-tetrahydro-1H-benzo [d] azepin-7-amine], under setting [1], the IC50 amounted to 10 nM.

As for `CCn1cc(-c2ccnc(Nc3ccc(N4CCN(C)CC4)c(OC)c3)n2)c(-c2cccnc2)n1` [Example 47, 4-(1-ethyl-3-(pyridin-3-yl)-1H-pyrazol-4-yl)-N-(3-methoxy-4-(4-methylpiperazin-1-yl)phenyl)pyrimidin-2-amine], the half-maximal inhibitory concentration (IC50) under setting [1] was 10.2 nM.

`COCCn1cc(-c2ccnc(Nc3ccc(C4CCN(C5COC5)CC4)cc3)n2)c(-c2cccnc2)n1` [Example 13]: the IC50 under setting [1] was 26.8 nM.

In the case of `CCn1cc(-c2ccnc(Nc3ccc(CCN4CCN(CCOC)CC4)cc3)n2)c(-c2cccnc2)n1` [Example 43, 4-(1-ethyl-3-(pyridin-3-yl)-1H-pyrazol-4-yl)-N-(4-(2-(4-(2-methoxyethyl)piperazin-1-yl)ethyl)phenyl)pyrimidin-2-amine], the IC50 under setting [1] amounted to 5.2 nM.

`CCn1cc(-c2ccnc(Nc3ccc(C4CCN(C5COC5)CC4)cc3)n2)c(-c2cccnc2)n1` [Example 11, 4-(1-Ethyl-3-(pyridin-3-yl)-1H-pyrazol-4-yl)-N-(4-(1-(oxetan-3-yl)piperidin-4-yl)phenyl)pyrimidin-2-amine]: under setting [1], the IC50 was 29.4 nM.

Turning to `CCn1cc(-c2ccnc(Nc3ccc(N4CCN(CCOC)CC4)nc3)n2)c(-c2cccnc2)n1` [Example 84, 4-(1-Ethyl-3-(pyridin-3-yl)-1H-pyrazol-4-yl)-N-(6-(4-(2-methoxyethyl)piperazin-1-yl)pyridin-3-yl)pyrimidin-2-amine], the IC50 under setting [1] was determined as 19.3 nM.

Take `CCn1cc(-c2ccnc(Nc3cccc(N4CCNCC4)c3)n2)c(-c2cccnc2)n1` [Example 158, 4-(1-Ethyl-3-(pyridin-3-yl)-1H-pyrazol-4-yl)-N-(3-(piperazin-1-yl)phenyl)pyrimidin-2-amine]: the half-inhibitory concentration (IC50) under setting [1] was determined as 18.5 nM.

For `CCn1cc(-c2ccnc(Nc3ccc(N4CCC(N)CC4)cc3)n2)c(-c2cccnc2)n1` [Example 147, N-(4-(4-Aminopiperidin-1-yl)phenyl)-4-(1-ethyl-3-(pyridin-3-yl)-1H-pyrazol-4-yl)pyrimidin-2-amine], under setting [1], the IC50 amounted to 14.1 nM.

Consider `CCn1cc(-c2ccnc(Nc3ccc4c(c3)CCN(C3CC3)CC4)n2)c(-c2cccnc2)n1` [Example 66, 3-Cyclopropyl-N-(4-(1-ethyl-3-(pyridin-3-yl)-1H-pyrazol-4-yl)pyrimidin-2-yl)-2,3,4,5-tetrahydro-1H-benzo[d]azepin-7-amine], for which the half-inhibitory concentration (IC50) under setting [1] stood at 6.4 nM.

In the case of `CCn1cc(-c2ccnc(Nc3ccc(N4CCC(C(C)(C)N)CC4)cc3)n2)c(-c2cccnc2)n1` [Example 178], the IC50 under setting [1] was 14.8 nM.

In the case of `CCn1cc(-c2ccnc(Nc3ccc(Cn4cncn4)cc3)n2)c(-c2cccnc2)n1` [Example 42, N-(4-((1H-1,2,4-Triazol-1-yl)methyl)phenyl)-4-(1-ethyl-3-(pyridin-3-yl)-1H-pyrazol-4-yl)pyrimidin-2-amine], the IC50 under setting [1] came to 36.9 nM.

With `COCCN1CCC(c2ccc(Nc3nccc(-c4cn(CCOC)nc4-c4cccnc4)n3)cc2)CC1` [Example 57, 4-(1-(2-methoxyethyl)-3-(pyridin-3-yl)-1H-pyrazol-4-yl)-N-(4-(1-(2-methoxyethyl)piperidin-4-yl)phenyl)pyrimidin-2-amine], under setting [1], the IC50 stood at 13 nM.

For `COCCN1CCC(c2ccc(Nc3nccc(-c4cn(C5COC5)nc4-c4cccnc4)n3)cc2)CC1` [Example 12, N-(4-(1-(2-methoxyethyl)piperidin-4-yl)phenyl)-4-(1-(oxetan-3-yl)-3-(pyridin-3-yl)-1H-pyrazol-4-yl)pyrimidin-2-amine], under setting [1], the 50% inhibitory concentration (IC50) stood at 6.6 nM.

Regarding `CN1CCc2cc(Nc3nccc(-c4cn(CC5CCOC5)nc4-c4cccnc4)n3)ccc2C1` (stereo not drawn) [Example 10, 2-Methyl-N-(4-(3-(pyridin-3-yl)-1-((tetrahydrofuran-3-yl)methyl)-1H-pyrazol-4-yl)pyrimidin-2-yl)-1,2,3,4-tetrahydroisoquinolin-6-amine], under setting [1], the IC50 was found to be 5.8 nM.

`CN1CCc2cc(Nc3nccc(-c4cn(CC(C)(C)O)nc4-c4cccnc4)n3)ccc2C1` [Example 65, 2-Methyl-1-(4-(2-((2-methyl-1,2,3,4-tetrahydroisoquinolin-6-yl)amino)pyrimidin-4-yl)-3-(pyridin-3-yl)-1H-pyrazol-1-yl)propan-2-ol]: the IC50 under setting [1] was determined as 3.3 nM.

For `CCn1cc(-c2ccnc(Nc3ccc(-c4ccncc4)cc3)n2)c(-c2cccnc2)n1` [Example 134, 4-(1-Ethyl-3-(pyridin-3-yl)-1H-pyrazol-4-yl)-N-(4-(pyridin-4-yl)phenyl)pyrimidin-2-amine], under setting [1], the IC50 was determined as 21.8 nM.

Consider `CCn1cc(-c2ccnc(Nc3ccc(N4CCN(CC(=O)N5CCCCC5)CC4)cc3)n2)c(-c2cccnc2)n1` [Example 31, 2-(4-(4-((4-(1-Ethyl-3-(pyridin-3-yl)-1H-pyrazol-4-yl)pyrimidin-2-yl)amino)phenyl)piperazin-1-yl)-1-(piperidin-1-yl)ethan-1-one], for which, under setting [1], the half-maximal inhibitory concentration (IC50) is 19.7 nM.

On to `CCn1cc(-c2ccnc(Nc3cnn(C4CCN(C5COC5)CC4)c3)n2)c(-c2cccnc2)n1` [Example 128, 4-(1-Ethyl-3-(pyridin-3-yl)-1H-pyrazol-4-yl)-N-(1-(1-(oxetan-3-yl)piperidin-4-yl)-1H-pyrazol-4-yl)pyrimidin-2-amine], for which the IC50 under setting [1] is 32 nM.

On to `CC(C)(O)Cn1cc(-c2ccnc(Nc3ccc(C4CCN(C5COC5)CC4)cc3)n2)c(-c2cccnc2)n1` [Example 132], for which the concentration for half-maximal inhibition (IC50) under setting [1] was determined as 24.9 nM.

Turning to `CCn1cc(-c2ccnc(Nc3cccc(C4CCN(C)CC4)c3)n2)c(-c2cccnc2)n1` [Example 114, 4-(1-Ethyl-3-(pyridin-3-yl)-1H-pyrazol-4-yl)-N-(3-(1-methylpiperidin-4-yl)phenyl)pyrimidin-2-amine], the IC50 under setting [1] worked out at 0.9 nM.

`CCn1cc(-c2ccnc(Nc3ccc(OC4CC5CCC(C4)N5)cc3)n2)c(-c2cccnc2)n1` (stereo not drawn) [Example 146, N-(4-((8-Azabicyclo[3.2.1]octan-3-yl)oxy)phenyl)-4-(1-ethyl-3-(pyridin-3-yl)-1H-pyrazol-4-yl)pyrimidin-2-amine]: the midpoint of inhibition, the IC50, lay at 13.5 nM.

With `COCCn1cc(-c2ccnc(Nc3ccc(N4CCN(C)CC4)cc3)n2)c(-c2cccnc2)n1` [Example 35, 4-(1-(2-methoxyethyl)-3-(pyridin-3-yl)-1H-pyrazol-4-yl)-N-(4-(4-methylpiperazin-1-yl)phenyl)pyrimidin-2-amine], under setting [1], the IC50 turned out to be 22.5 nM.

On to `CCn1cc(-c2ccnc(Nc3ccc4c(c3)CCN(C)CC4)n2)c(-c2cccnc2)n1` [Example 115, N-(4-(1-Ethyl-3-(pyridin-3-yl)-1H-pyrazol-4-yl)pyrimidin-2-yl)-3-methyl-2,3,4,5-tetrahydro-1H-benzo [d] azepin-7-amine], for which, under setting [1], the IC50 was 1.1 nM.

Consider `CC(=O)N1CCN(C(=O)c2ccc(Nc3nccc(-c4cn(CCc5ccccc5)nc4-c4cccnc4)n3)cc2)CC1` [Example 74, 1-(4-(4-((4-(1-phenethyl-3-(pyridin-3-yl)-1H-pyrazol-4-yl)pyrimidin-2-yl)amino)benzoyl)piperazin-1-yl)ethan-1-one], for which the IC50 under setting [1] was 39 nM.

On to `CCn1cc(-c2ccnc(Nc3ccc(N4CCN(C5CCOCC5)CC4)cc3)n2)c(-c2cccnc2)n1` [Example 130, 4-(1-Ethyl-3-(pyridin-3-yl)-1H-pyrazol-4-yl)-N-(4-(4-(tetrahydro-2H-pyran-4-yl)piperazin-1-yl)phenyl)pyrimidin-2-amine], for which, under setting [1], the IC50 was 12.4 nM.

`CCn1cc(-c2ccnc(Nc3cnn(C4CCOCC4)c3)n2)c(-c2cccnc2)n1` [Example 53, 4-(1-ethyl-3-(pyridin-3-yl)-1H-pyrazol-4-yl)-N-(1-(tetrahydro-2H-pyran-4-yl)-1H-pyrazol-4-yl)pyrimidin-2-amine]: the IC50 under setting [1] was determined as 22 nM.
